Experimental data taken from publication PMC10470521, “Structural basis of a bi-functional malonyl-CoA reductase (MCR) from the photosynthetic green non-sulfur bacterium Roseiflexus castenholzii” (mBio, 2023).

Legend:
RfxMCR-C = target: T1, RfxMCR-C (Roseiflexus castenholzii, UniProt A7NN59); test: X-ray crystal structure, […] Å; format: binding; conditions: SDR3 / ED interface
T1 construct: gene Rcas_2929; C-terminal fragment Gly573-Val1229 (SDR3-ED-SDR4), N-terminal His6 tag (pET28a), E. coli BL21(DE3)

[1] = target: RfxMCR-C (Gly573-Val1229) (Roseiflexus castenholzii DSM 13941) (UniProt A7NN59); test: crystal structure; RfxMCR-C with NADP+ and MSA; 1.6 M sodium formate, 0.1 M Bis-tris propane pH 7.0, 16°C; P6(5)22, dimer by crystal packing; 2.3 Å
RfxMCR-N = target: T2, RfxMCR-N (Roseiflexus castenholzii, UniProt A7NN59); test: X-ray crystal structure, […] Å; format: binding; conditions: ternary complex with NADP+; SDR1 site; MSA not added, modelled in extra density; crystals grown in 1 M sodium malonate pH 5.0
T2 construct: gene Rcas_2929; N-terminal fragment Met1-Phe572 (SDR1-SDR2), C-terminal His6 tag (pET28a), E. coli BL21(DE3)

full-length RfxMCR [2] = target: T3, full-length RfxMCR (Roseiflexus castenholzii, UniProt A7NN59, R799A); test: NADPH oxidation at […] nm; format: biochemical; conditions: 0.4 mM NADPH, 5 mM MgCl2, 100 mM Tris-HCl pH 8.0, 150 mM NaCl, 50°C; apparent; overall two-step reduction; extra domain
T3 construct: gene Rcas_2929; full length Met1-Val1229, C-terminal His6 tag (pET20b), E. coli BL21(DE3); homodimer ~270 kDa

full-length RfxMCR [3] = target: T4, full-length RfxMCR (Roseiflexus castenholzii, UniProt A7NN59, S731A); test: NADPH oxidation at […] nm; format: biochemical; conditions: 0.4 mM NADPH, 5 mM MgCl2, 100 mM Tris-HCl pH 8.0, 150 mM NaCl, 50°C; apparent; overall two-step reduction; SDR3 site
T4 construct: gene Rcas_2929; full length Met1-Val1229, C-terminal His6 tag (pET20b), E. coli BL21(DE3); homodimer ~270 kDa

full-length RfxMCR [4] = target: T5, full-length RfxMCR (Roseiflexus castenholzii, UniProt A7NN59, Y749A); test: NADPH oxidation at […] nm; format: biochemical; conditions: 0.4 mM NADPH, 5 mM MgCl2, 100 mM Tris-HCl pH 8.0, 150 mM NaCl, 50°C; apparent; overall two-step reduction
T5 construct: gene Rcas_2929; full length Met1-Val1229, C-terminal His6 tag (pET20b), E. coli BL21(DE3); homodimer ~270 kDa

full-length RfxMCR [5] = target: T6, full-length RfxMCR (Roseiflexus castenholzii, UniProt A7NN59, Y178A); test: NADPH oxidation at […] nm; format: biochemical; conditions: 0.4 mM NADPH, 5 mM MgCl2, 100 mM Tris-HCl pH 8.0, 150 mM NaCl, 50°C; apparent; overall two-step reduction
T6 construct: gene Rcas_2929; full length Met1-Val1229, C-terminal His6 tag (pET20b), E. coli BL21(DE3); homodimer ~270 kDa

full-length RfxMCR [6] = target: T7, full-length RfxMCR (Roseiflexus castenholzii, UniProt A7NN59, K753A); test: NADPH oxidation at […] nm; format: biochemical; conditions: 0.4 mM NADPH, 5 mM MgCl2, 100 mM Tris-HCl pH 8.0, 150 mM NaCl, 50°C; apparent; overall two-step reduction
T7 construct: gene Rcas_2929; full length Met1-Val1229, C-terminal His6 tag (pET20b), E. coli BL21(DE3); homodimer ~270 kDa

full-length RfxMCR [7] = target: T8, full-length RfxMCR (Roseiflexus castenholzii, UniProt A7NN59, L795A); test: NADPH oxidation at […] nm; format: biochemical; conditions: 0.4 mM NADPH, 5 mM MgCl2, 100 mM Tris-HCl pH 8.0, 150 mM NaCl, 50°C; apparent; overall two-step reduction
T8 construct: gene Rcas_2929; full length Met1-Val1229, C-terminal His6 tag (pET20b), E. coli BL21(DE3); homodimer ~270 kDa

full-length RfxMCR [8] = target: T9, full-length RfxMCR (Roseiflexus castenholzii, UniProt A7NN59, R785A); test: NADPH oxidation at […] nm; format: biochemical; conditions: 0.4 mM NADPH, 5 mM MgCl2, 100 mM Tris-HCl pH 8.0, 150 mM NaCl, 50°C; apparent; overall two-step reduction; extra domain
T9 construct: gene Rcas_2929; full length Met1-Val1229, C-terminal His6 tag (pET20b), E. coli BL21(DE3); homodimer ~270 kDa

full-length RfxMCR [9] = target: T10, full-length RfxMCR (Roseiflexus castenholzii, UniProt A7NN59, R746A); test: NADPH oxidation at […] nm; format: biochemical; conditions: 0.4 mM NADPH, 5 mM MgCl2, 100 mM Tris-HCl pH 8.0, 150 mM NaCl, 50°C; apparent; overall two-step reduction; SDR3 site
T10 construct: gene Rcas_2929; full length Met1-Val1229, C-terminal His6 tag (pET20b), E. coli BL21(DE3); homodimer ~270 kDa

full-length RfxMCR [10] = target: T11, full-length RfxMCR (Roseiflexus castenholzii, UniProt A7NN59, K182A); test: NADPH oxidation at […] nm; format: biochemical; conditions: 0.4 mM NADPH, 5 mM MgCl2, 100 mM Tris-HCl pH 8.0, 150 mM NaCl, 50°C; apparent; overall two-step reduction
T11 construct: gene Rcas_2929; full length Met1-Val1229, C-terminal His6 tag (pET20b), E. coli BL21(DE3); homodimer ~270 kDa

full-length RfxMCR [11] = target: T12, full-length RfxMCR (Roseiflexus castenholzii, UniProt A7NN59, T165A); test: NADPH oxidation at […] nm; format: biochemical; conditions: 0.4 mM NADPH, 5 mM MgCl2, 100 mM Tris-HCl pH 8.0, 150 mM NaCl, 50°C; apparent; overall two-step reduction; SDR1 site (second step, MSA to 3-HP)
T12 construct: gene Rcas_2929; full length Met1-Val1229, C-terminal His6 tag (pET20b), E. coli BL21(DE3); homodimer ~270 kDa
T12 sequence (A7NN59 entry or part of it T165A): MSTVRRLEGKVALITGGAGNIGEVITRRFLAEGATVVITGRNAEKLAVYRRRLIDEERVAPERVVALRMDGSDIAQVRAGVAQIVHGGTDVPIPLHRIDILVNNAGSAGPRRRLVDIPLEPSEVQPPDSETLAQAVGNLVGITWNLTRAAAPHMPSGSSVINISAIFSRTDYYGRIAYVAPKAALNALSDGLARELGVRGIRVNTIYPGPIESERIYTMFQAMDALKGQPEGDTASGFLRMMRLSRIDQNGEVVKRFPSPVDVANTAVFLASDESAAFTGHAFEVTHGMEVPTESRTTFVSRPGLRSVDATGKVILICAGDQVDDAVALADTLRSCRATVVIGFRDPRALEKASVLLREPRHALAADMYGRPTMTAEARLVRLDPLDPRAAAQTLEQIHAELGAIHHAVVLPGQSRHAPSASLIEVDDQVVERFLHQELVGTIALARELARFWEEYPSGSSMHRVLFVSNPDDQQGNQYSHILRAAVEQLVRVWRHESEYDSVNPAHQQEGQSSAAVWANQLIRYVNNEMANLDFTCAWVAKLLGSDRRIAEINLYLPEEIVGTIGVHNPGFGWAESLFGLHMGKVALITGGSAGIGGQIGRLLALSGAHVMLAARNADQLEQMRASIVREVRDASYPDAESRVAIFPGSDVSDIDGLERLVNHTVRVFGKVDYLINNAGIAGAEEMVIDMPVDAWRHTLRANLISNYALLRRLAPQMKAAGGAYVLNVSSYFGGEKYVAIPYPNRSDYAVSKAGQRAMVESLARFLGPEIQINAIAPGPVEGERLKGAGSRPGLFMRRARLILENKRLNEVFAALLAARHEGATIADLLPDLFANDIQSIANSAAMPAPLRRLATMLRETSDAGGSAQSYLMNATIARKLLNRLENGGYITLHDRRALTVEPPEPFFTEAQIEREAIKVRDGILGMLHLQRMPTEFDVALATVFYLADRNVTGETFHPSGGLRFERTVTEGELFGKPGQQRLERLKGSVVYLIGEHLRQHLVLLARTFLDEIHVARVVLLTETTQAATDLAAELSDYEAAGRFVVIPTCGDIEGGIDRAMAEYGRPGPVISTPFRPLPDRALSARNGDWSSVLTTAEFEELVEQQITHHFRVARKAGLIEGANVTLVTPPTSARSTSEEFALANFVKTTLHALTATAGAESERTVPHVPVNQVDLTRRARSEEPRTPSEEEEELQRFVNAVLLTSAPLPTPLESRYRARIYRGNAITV

T1 sequence (A7NN59 entry or part of it): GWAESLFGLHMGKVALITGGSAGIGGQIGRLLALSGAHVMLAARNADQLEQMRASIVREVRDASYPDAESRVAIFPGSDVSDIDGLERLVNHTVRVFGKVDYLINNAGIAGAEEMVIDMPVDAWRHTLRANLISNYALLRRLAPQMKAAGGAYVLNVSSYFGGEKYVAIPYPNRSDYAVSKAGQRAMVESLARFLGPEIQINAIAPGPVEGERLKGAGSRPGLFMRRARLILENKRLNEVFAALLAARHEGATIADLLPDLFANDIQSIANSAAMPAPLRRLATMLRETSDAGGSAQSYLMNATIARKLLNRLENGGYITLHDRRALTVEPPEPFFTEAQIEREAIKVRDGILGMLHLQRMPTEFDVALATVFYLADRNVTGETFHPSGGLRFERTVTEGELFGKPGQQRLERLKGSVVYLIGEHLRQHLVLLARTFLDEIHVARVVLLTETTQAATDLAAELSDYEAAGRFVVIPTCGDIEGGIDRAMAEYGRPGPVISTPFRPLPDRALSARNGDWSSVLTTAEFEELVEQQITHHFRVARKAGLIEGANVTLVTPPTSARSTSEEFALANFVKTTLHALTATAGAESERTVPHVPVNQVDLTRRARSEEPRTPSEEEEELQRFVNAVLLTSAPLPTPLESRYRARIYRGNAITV
T4 sequence (A7NN59 entry or part of it S731A): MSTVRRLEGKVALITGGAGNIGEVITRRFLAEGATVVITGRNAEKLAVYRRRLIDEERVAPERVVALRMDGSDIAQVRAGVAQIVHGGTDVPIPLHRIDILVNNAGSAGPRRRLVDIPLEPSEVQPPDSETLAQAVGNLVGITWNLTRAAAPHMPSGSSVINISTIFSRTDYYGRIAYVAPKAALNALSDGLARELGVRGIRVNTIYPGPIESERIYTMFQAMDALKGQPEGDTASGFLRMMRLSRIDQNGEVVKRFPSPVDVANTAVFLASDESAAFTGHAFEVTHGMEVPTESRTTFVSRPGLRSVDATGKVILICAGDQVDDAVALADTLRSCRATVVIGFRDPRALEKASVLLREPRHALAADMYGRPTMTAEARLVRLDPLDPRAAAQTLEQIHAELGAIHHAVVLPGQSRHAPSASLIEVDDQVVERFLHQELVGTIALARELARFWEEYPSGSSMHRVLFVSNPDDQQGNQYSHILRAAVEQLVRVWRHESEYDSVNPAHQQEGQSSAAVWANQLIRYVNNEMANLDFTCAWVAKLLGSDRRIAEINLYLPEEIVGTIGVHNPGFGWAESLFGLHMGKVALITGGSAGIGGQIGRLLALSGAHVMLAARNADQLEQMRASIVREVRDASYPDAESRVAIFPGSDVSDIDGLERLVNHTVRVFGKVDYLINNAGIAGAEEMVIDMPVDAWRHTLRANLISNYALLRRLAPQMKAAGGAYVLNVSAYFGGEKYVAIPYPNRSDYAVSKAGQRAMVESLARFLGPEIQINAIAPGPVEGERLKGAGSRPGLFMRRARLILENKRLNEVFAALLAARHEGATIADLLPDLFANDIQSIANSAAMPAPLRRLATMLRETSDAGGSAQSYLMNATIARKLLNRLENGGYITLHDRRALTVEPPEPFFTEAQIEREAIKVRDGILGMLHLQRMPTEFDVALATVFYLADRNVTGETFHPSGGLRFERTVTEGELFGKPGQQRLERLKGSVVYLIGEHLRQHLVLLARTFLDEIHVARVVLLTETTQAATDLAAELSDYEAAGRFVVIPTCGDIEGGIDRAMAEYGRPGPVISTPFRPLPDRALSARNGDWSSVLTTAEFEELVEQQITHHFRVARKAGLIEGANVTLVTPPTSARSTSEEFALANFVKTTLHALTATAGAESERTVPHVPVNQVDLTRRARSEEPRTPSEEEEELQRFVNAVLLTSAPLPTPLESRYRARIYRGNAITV
T6 sequence (A7NN59 entry or part of it Y178A): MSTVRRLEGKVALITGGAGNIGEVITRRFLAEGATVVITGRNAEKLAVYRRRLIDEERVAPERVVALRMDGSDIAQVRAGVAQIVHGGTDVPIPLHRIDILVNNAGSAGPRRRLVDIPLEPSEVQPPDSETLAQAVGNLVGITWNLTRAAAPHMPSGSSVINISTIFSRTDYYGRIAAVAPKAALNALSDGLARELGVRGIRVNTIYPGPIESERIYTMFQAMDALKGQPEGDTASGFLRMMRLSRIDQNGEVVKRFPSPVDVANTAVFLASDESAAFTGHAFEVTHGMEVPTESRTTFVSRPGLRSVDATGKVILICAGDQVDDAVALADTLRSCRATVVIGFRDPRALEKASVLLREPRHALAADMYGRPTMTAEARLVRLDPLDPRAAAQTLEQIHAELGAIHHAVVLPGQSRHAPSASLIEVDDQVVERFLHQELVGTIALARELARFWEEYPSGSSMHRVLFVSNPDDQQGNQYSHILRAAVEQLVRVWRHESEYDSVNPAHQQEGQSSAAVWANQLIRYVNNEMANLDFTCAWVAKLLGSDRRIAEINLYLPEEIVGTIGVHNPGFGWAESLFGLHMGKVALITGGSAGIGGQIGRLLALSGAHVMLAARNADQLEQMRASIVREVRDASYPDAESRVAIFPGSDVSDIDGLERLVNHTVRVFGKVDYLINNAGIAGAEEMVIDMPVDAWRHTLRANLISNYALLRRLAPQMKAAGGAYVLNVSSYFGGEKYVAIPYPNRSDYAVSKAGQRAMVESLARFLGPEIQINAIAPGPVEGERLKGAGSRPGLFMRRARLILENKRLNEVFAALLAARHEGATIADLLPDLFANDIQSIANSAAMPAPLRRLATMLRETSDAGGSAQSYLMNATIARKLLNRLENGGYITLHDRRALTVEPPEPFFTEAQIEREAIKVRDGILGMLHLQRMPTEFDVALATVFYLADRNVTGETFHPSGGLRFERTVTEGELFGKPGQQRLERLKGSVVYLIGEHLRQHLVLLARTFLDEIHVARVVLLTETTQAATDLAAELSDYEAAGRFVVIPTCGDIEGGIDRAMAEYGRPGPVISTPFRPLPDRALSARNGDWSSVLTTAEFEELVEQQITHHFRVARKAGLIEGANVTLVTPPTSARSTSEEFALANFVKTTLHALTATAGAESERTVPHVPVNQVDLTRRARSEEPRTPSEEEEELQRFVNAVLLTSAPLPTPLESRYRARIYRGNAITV
T2 sequence (A7NN59 entry or part of it): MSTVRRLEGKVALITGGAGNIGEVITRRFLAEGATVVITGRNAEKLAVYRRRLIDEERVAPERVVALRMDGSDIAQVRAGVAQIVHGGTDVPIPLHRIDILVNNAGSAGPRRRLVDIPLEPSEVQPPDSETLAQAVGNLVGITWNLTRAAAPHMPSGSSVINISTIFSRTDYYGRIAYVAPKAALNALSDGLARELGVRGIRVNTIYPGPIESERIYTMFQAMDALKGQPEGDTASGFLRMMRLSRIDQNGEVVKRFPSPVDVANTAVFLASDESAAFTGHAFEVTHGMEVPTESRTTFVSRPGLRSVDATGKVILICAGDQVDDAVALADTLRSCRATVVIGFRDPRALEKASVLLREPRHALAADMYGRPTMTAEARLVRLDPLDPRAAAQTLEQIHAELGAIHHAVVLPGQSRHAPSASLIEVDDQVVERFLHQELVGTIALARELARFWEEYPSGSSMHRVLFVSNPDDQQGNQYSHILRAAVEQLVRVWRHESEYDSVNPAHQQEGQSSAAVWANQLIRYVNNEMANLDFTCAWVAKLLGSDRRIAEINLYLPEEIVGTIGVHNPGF

Compound: NC(=O)c1ccc[n+]([C@@H]2O[C@H](COP(=O)(O)OP(=O)(O)OC[C@H]3O[C@@H](n4cnc5c(N)ncnc54)[C@H](OP(=O)(O)O)[C@@H]3O)[C@@H](O)[C@H]2O)c1 [NADP^+]
- X-ray crystal structure, 2.3 Å (RfxMCR-C; ternary complex with MSA): a cofactor NADP^+ and intermediate MSA were resolved at the interface between the SDR3

Compound: RfxMCR-C (Gly573-Val1229) (from UniProt A7NN59 573-1229) (domain or fragment)
- stoichiometry N [1]: 2

Compound: O=CCC(=O)O [malonate semialdehyde]
- X-ray crystal structure, 2.3 Å (RfxMCR-C; ternary complex with NADP+, MSA not added, modelled in density): a cofactor NADP^+ and intermediate MSA were resolved at the interface between the SDR3
- X-ray crystal structure, 2.0 Å (RfxMCR-N): extra electron density that precisely matched the reduction intermediate MSA

Compound: CC(C)(COP(=O)(O)OP(=O)(O)OC[C@H]1O[C@@H](n2cnc3c(N)ncnc32)[C@H](O)[C@@H]1OP(=O)(O)O)[C@@H](O)C(=O)NCCC(=O)NCCSC(=O)CC(=O)O [malonyl-CoA]
- overall enzymatic activity (full-length RfxMCR [2]): Ser731, Tyr749, Lys753, and Arg799 completely eliminated enzymatic activity
- overall enzymatic activity (full-length RfxMCR [3]): Ser731, Tyr749, Lys753, and Arg799 completely eliminated enzymatic activity
- overall enzymatic activity (full-length RfxMCR [4]): Ser731, Tyr749, Lys753, and Arg799 completely eliminated enzymatic activity
- overall enzymatic activity (full-length RfxMCR [5]): Site-directed mutation of Thr165, Tyr172, Arg175, Tyr178, and Lys182 to Ala residues
- overall enzymatic activity (full-length RfxMCR [6]): Ser731, Tyr749, Lys753, and Arg799 completely eliminated enzymatic activity
- overall enzymatic activity (full-length RfxMCR [7]): mutagenesis of Arg746, Arg785, and Leu795
- overall enzymatic activity (full-length RfxMCR [8]): mutagenesis of Arg746, Arg785, and Leu795
- overall enzymatic activity (full-length RfxMCR [9]): mutagenesis of Arg746, Arg785, and Leu795
- overall enzymatic activity (full-length RfxMCR [10]): Site-directed mutation of Thr165, Tyr172, Arg175, Tyr178, and Lys182 to Ala residues
- overall enzymatic activity (full-length RfxMCR [11]): Site-directed mutation of Thr165, Tyr172, Arg175, Tyr178, and Lys182 to Ala residues
